Data as given in PMC7029851, “Antibacterial activity of novel dual bacterial DNA type II topoisomerase inhibitors” (PLoS ONE, 2020).
pIC50: −log10 of the molar value. Where “and” joins values, the source holds several entries; their conditions need not be identical. Equal values may be shown once. Read-outs that look alike come from different tables or passages of the source.

Experiments:
[1] = molecular target: T1, S. aureus DNA gyrase (Staphylococcus aureus, UniProt P20831); experiment: S. aureus DNA gyrase supercoiling gel assay; type: biochemical
T1 construct: purchased Inspiralis (Norwich, UK)
Procedure: (§1) S. aureus and E. coli DNA gyrase supercoiling and topo IV decatenation assay kits, as well as human topoisomerase II decatenation assay kits, were provided by Inspiralis (Norwich, UK). Assays were performed according to the manufacturer’s instructions. The compounds were serially diluted (1:3 dilutions starting from a 300 μM final concentration) and assayed in a reaction mixture to obtain concentration-response curves in two different replicate experiments. The final concentration of DMSO in the assays was 1% (v/v). The reactions were terminated by the addition of 30 μl chloroform/isoamyl alcohol (26:1) and 30 μl Stop Dye (40% sucrose, 100 mM Tris HCl pH 7.5, 1 mM EDTA, 0.5 μg/ml bromophenol blue), after which the samples were loaded onto a 1.0% TAE ([…]) gel that was then run at 80 V for 2 hours. DNA bands were visualized by ethidium bromide staining the gel for 10 minutes, which was then destained for 10 minutes in water and analysed using gel documentation equipment (Syngene, Cambridge, UK). The DNA in each band was quantitated using Syngene Gene Tools software. Raw gel data (fluorescent band volumes) were converted by the software to percentages of the control (the fully supercoiled or decatenated DNA band). […] The global curve fit non-linear regression tool was used to calculate the IC50 values. The results are expressed as the average values obtained after calculating the IC50 from each replicate run.

[2] = system: N. gonorrhoeae ATCC 49226; experiment: MIC, agar dilution; type: cell-based; conditions: Neisseria gonorrhoeae, ATCC49226; N. gonorrhoeae ATCC 49226, ciprofloxacin-susceptible
Procedure: (§2) MICs were determined by the broth microdilution method (the agar dilution method was used only for N. gonorrhoeae) according to CLSI guidelines.

[3] = system: N. gonorrhoeae WHO N; experiment: MIC, agar dilution; type: cell-based; conditions: Neisseria gonorrhoeae, ciprofloxacin-resistant
Procedure: as §2

[4] = system: N. gonorrhoeae WHO K; experiment: MIC, agar dilution; type: cell-based; conditions: Neisseria gonorrhoeae, ciprofloxacin-resistant
Procedure: as §2

[5] = system: N. gonorrhoeae ATCC 19424; experiment: MIC, agar dilution; type: cell-based; conditions: Neisseria gonorrhoeae, ATCC19424; N. gonorrhoeae ATCC 19424, ciprofloxacin-susceptible
Procedure: as §2

[6] = system: N. gonorrhoeae WHO L; experiment: MIC, agar dilution; type: cell-based; conditions: Neisseria gonorrhoeae, ciprofloxacin-resistant
Procedure: as §2

[7] = system: E. faecium clinical isolates (n = 12) vanA (6)/vanB (6); experiment: MIC, multidrug-resistant clinical isolates; type: cell-based; conditions: Enterococcus faecium; for MIC: read-out: MIC range
Procedure: (§3) The bacterial reference strains used in this study were purchased from ATCC (American Type Culture Collection) via LGC Standards (Middlesex, UK). […] Clinical MDR isolates were provided by Aptuit, the IHMA Europa Sàrl repository (Epalinges, Switzerland) and the Statens Serum Institute (Copenhagen, Denmark).
as §2
(§4) The results obtained using clinical isolates are reported as MIC50 and MIC90 values.

[8] = system: E. faecalis clinical isolates (n = 12) vanA (6)/vanB (6); experiment: MIC, multidrug-resistant clinical isolates; type: cell-based; conditions: Enterococcus faecalis; for MIC: read-out: MIC range
Procedure: as §3, §2, §4

[9] = molecular target: T2, E. coli DNA gyrase (Escherichia coli, UniProt P0AES4); experiment: E. coli DNA gyrase supercoiling gel assay; type: biochemical
T2 construct: purchased Inspiralis (Norwich, UK)
Procedure: as §1

[10] = molecular target: T3, Human Topoisomerase II (Homo sapiens, UniProt P11388); experiment: Human topoisomerase II decatenation gel assay; type: biochemical
T3 construct: purchased Inspiralis (Norwich, UK)
Procedure: as §1

[11] = system: N. gonorrhoeae clinical isolates (n = 38); experiment: microbe, parasite or virus in culture; type: cell-based, Neisseria gonorrhoeae; conditions: for MIC50 / MIC90: Neisseria gonorrhoeae
Procedure: as §3, §2, §4

[12] = system: S. pneumoniae ATCC 49619; experiment: MIC, broth microdilution; type: cell-based; conditions: Streptococcus pneumoniae, ATCC49619; S. pneumoniae ATCC 49619, ciprofloxacin-susceptible
Procedure: as §2

[13] = system: P. aeruginosa ATCC 27853; experiment: MIC, broth microdilution; type: cell-based; conditions: Pseudomonas aeruginosa, ATCC27853; P. aeruginosa ATCC 27853, ciprofloxacin-susceptible
Procedure: as §2

[14] = system: E. coli ATCC 25922; experiment: MIC, broth microdilution; type: cell-based; conditions: Escherichia coli, ATCC25922; E. coli ATCC 25922, ciprofloxacin-susceptible
Procedure: as §2

[15] = system: H. influenzae ATCC 49766; experiment: MIC, broth microdilution; type: cell-based; conditions: Haemophilus influenzae, ATCC49766; H. influenzae ATCC 49766, ciprofloxacin-susceptible
Procedure: as §2

[16] = system: E. faecalis ATCC 29212; experiment: MIC, broth microdilution; type: cell-based; conditions: Enterococcus faecalis, ATCC29212; E. faecalis ATCC 29212, ciprofloxacin-susceptible
Procedure: as §2

[17] = system: S. aureus BAA-1720; experiment: MIC, broth microdilution; type: cell-based; conditions: Staphylococcus aureus, BAA1720; S. aureus BAA-1720, ciprofloxacin-resistant
Procedure: as §2

[18] = system: K. pneumoniae ATCC 700603; experiment: MIC, broth microdilution; type: cell-based; conditions: Klebsiella pneumoniae, ATCC700603; K. pneumoniae ATCC 700603, ciprofloxacin-susceptible
Procedure: as §2

[19] = molecular target: T4, E. coli Topoisomerase IV (Escherichia coli, UniProt P0AFI2); experiment: E. coli topoisomerase IV decatenation gel assay; type: biochemical
T4 construct: purchased Inspiralis (Norwich, UK)
Procedure: as §1

[20] = molecular target: T5, S. aureus Topoisomerase IV (Staphylococcus aureus, UniProt P0C1U9); experiment: S. aureus topoisomerase IV decatenation gel assay; type: biochemical
T5 construct: purchased Inspiralis (Norwich, UK)
Procedure: as §1

[21] = system: K. pneumoniae AcrAB- mutant; experiment: microbe, parasite or virus in culture; type: cell-based; conditions: Klebsiella pneumoniae
Procedure: as §3, §2

[22] = system: E. coli TolC- mutant; experiment: microbe, parasite or virus in culture; type: cell-based; conditions: Escherichia coli
Procedure: as §3, §2

[23] = system: S. aureus ATCC 29213; experiment: MIC, broth microdilution; type: cell-based, Staphylococcus aureus; conditions: for MIC fold lower than that of ciprofloxacin: S. aureus ATCC 29213; for MIC: Staphylococcus aureus
Procedure: as §2

[24] = average of two replicate experiments, read-out: IC50 S. aureus Gyrase Supercoiling (average)
[25] = replicate Assay 1, read-out: IC50 S.aureus gyrase Supercoiling, Assay 1
[26] = replicate Assay 2, read-out: IC50 S.aureus gyrase Supercoiling, Assay 2
[27] = IC50 E. coli Gyrase Supercoiling (average), average of two replicate experiments
[28] = IC50 E. coli gyrase Supercoiling, Assay 1, replicate Assay 1
[29] = IC50 E. coli gyrase Supercoiling, Assay 2, replicate Assay 2
[30] = average of two replicate experiments, read-out: IC50 Human Topoisomerase II decatenation (average)
[31] = replicate Assay 1, read-out: IC50 Human Topoisomerase II (TopoII) decatenation, Assay 1
[32] = replicate Assay 2, read-out: IC50 Human Topoisomerase II (TopoII) decatenation, Assay 2
[33] = IC50 E. coli Topoisomerase IV decatenation (average), average of two replicate experiments
[34] = IC50 E. coli Topoisomerase IV decatenation, Assay 1, replicate Assay 1
[35] = IC50 E. coli Topoisomerase IV decatenation, Assay 2, replicate Assay 2
[36] = replicate Assay 1, read-out: IC50 S. aureus Topoisomerase IV decatenation, Assay 1
[37] = replicate Assay 2, read-out: IC50 S. aureus Topoisomerase IV decatenation, Assay 2
[38] = ATCC29213, S. aureus ATCC 29213, ciprofloxacin-susceptible

T2 sequence (P0AES4 whole entry): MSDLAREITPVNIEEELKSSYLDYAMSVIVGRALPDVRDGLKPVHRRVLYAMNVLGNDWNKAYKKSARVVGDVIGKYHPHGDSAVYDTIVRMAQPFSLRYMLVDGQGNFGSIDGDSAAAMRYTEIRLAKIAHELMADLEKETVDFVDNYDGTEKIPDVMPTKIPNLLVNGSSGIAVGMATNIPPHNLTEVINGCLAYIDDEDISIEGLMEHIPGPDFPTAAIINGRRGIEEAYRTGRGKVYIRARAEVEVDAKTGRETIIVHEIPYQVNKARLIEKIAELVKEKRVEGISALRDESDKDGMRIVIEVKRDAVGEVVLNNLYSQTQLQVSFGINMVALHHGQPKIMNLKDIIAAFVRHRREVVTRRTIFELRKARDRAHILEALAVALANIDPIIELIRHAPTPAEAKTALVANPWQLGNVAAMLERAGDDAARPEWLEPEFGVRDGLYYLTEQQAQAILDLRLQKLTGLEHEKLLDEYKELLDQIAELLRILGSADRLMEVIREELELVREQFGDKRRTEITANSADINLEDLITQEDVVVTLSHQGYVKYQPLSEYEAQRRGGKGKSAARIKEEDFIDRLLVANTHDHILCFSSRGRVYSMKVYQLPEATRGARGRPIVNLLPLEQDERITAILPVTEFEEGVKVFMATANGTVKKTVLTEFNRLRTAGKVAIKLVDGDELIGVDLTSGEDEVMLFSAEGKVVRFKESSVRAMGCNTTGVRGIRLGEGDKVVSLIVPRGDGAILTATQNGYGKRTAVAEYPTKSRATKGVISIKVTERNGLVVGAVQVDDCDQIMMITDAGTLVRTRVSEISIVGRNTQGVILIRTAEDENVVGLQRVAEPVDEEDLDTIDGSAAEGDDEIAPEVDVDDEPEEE
T1 sequence (P20831 whole entry): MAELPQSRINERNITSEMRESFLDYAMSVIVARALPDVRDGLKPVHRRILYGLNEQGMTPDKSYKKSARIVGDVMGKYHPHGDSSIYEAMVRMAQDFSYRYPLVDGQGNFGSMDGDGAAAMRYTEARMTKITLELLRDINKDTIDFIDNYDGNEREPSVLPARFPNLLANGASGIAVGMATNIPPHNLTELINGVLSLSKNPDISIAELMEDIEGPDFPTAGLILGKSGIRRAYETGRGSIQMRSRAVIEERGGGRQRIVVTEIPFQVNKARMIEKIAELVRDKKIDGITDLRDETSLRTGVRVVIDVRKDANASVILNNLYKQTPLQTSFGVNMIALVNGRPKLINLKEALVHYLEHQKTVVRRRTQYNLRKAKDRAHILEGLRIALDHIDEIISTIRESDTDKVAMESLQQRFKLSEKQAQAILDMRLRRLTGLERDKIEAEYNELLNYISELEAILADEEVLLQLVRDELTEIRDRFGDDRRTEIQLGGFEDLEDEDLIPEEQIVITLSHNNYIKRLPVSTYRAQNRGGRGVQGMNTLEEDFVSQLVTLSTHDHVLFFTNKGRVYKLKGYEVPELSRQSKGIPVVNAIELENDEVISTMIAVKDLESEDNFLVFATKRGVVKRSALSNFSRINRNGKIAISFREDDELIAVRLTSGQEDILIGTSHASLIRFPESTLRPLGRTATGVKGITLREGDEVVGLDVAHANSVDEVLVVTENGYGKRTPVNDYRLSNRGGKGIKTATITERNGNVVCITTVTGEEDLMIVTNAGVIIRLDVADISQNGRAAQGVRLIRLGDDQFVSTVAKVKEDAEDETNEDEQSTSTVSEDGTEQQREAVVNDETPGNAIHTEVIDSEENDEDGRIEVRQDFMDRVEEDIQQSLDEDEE
T1 sequence (P0A0K8 whole entry partner): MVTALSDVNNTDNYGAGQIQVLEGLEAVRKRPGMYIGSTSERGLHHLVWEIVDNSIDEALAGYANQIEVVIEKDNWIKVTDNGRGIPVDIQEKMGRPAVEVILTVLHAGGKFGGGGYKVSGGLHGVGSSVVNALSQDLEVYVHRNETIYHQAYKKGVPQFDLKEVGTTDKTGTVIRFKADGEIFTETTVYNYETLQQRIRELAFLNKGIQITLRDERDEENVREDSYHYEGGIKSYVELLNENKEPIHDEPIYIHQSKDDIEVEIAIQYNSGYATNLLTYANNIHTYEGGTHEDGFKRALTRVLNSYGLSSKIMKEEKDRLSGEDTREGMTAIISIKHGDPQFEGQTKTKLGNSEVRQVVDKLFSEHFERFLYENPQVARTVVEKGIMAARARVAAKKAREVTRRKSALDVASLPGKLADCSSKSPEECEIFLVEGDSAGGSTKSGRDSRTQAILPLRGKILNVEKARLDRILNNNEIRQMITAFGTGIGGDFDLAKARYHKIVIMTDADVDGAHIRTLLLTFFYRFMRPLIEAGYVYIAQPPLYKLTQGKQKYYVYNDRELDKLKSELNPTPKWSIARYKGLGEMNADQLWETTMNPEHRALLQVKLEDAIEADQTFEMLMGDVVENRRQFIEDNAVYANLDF
T4 sequence (P20083 whole entry): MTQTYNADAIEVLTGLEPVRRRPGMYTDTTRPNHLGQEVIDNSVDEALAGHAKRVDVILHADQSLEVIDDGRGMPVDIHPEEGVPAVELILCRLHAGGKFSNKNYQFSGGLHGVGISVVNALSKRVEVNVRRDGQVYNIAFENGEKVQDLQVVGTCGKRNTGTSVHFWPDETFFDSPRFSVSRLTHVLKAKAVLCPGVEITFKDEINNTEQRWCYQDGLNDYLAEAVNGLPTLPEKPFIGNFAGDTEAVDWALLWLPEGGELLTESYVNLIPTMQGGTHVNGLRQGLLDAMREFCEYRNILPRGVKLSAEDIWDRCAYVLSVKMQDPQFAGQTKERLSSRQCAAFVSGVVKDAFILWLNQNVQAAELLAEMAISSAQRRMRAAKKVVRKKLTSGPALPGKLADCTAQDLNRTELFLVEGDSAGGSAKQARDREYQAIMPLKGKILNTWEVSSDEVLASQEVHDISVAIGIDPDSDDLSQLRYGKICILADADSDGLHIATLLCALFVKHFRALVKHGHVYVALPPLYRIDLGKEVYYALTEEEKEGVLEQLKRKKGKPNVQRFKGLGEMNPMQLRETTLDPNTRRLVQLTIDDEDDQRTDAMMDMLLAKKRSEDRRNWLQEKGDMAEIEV
T4 sequence (P0AFI2 whole entry): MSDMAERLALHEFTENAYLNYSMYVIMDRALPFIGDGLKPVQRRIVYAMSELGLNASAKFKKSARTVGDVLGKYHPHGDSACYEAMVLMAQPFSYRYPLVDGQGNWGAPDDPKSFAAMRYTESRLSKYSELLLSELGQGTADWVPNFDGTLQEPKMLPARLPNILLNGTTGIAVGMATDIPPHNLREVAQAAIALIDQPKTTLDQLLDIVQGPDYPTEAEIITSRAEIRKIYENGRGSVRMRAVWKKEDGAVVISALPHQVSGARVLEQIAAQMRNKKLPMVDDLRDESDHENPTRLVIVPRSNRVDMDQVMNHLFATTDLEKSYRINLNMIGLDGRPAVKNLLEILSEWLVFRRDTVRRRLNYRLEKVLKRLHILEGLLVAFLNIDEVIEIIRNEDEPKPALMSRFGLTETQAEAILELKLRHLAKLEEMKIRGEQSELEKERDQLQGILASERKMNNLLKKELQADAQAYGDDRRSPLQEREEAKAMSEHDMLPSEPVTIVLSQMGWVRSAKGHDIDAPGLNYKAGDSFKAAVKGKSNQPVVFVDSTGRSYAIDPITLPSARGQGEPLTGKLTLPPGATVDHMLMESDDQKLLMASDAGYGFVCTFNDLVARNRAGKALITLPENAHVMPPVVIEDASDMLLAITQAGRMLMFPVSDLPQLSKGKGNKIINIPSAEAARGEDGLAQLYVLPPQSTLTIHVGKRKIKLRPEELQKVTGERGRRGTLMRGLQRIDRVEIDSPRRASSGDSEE

For Cl.N#Cc1ccc2ccc(=O)n([C@H]3CC[C@H](NCc4cc5c(=O)oc6ccc(F)cc6c5[nH]4)CC3)c2c1 [Compound 2, 1-(trans-4-{[(8-fluoro-4-oxo-1,4-dihydro[1]benzopyrano[4,3-b]pyrrol-2-yl)methyl]amino}cyclohexyl)-2-oxo-1,2-dihydroquinoline-7-carbonitrile hydrochloride], the pIC50 [1, 24] was > 7.00, the pIC50 [1, 25] was > 7.00 and the pIC50 [1, 26] was > 7.00. It also gave an MIC [2] of 0.06 µg/mL, an MIC [3] of 0.03 µg/mL and an MIC [4] of 0.12 µg/mL. For the same compound, the MIC [5] was ≤ 0.06 µg/mL, the MIC [6] was 0.06 µg/mL and the MIC50 [7] was 0.12 µg/mL. The MIC90 [7] was 0.25 µg/mL, the MIC [7] was 0.06 to 1 µg/mL and the MIC50 [8] was 0.12 µg/mL. The MIC90 [8] was 0.12 µg/mL, the MIC [8] was 0.06 to 0.12 µg/mL and the pIC50 [9, 27] was 7.30. The pIC50 [9, 28] was 7.40, the pIC50 [9, 29] was 7.30 and the pIC50 [10, 30] was 5.22. It also gave a pIC50 [10, 31] of 5.22, a pIC50 [10, 32] of 5.15 and an MIC range [11] of 0.004 to 0.12 µg/mL. For the same compound, the MIC50 [11] was 0.06 µg/mL, the MIC90 [11] was 0.12 µg/mL and the MIC [12] was ≤ 0.06 µg/mL. The MIC [13] was 2 µg/mL, the MIC [14] was 0.5 µg/mL and the MIC [15] was 0.5 µg/mL. The MIC [16] was 0.25 µg/mL, the MIC [17] was 0.016 µg/mL and the MIC [18] was > 8 µg/mL. The pIC50 [19, 33] was 6.89, the pIC50 [19, 34] was 7.00 and the pIC50 [19, 35] was 6.80. For the same compound, the pIC50 ([20]; average of two replicate experiments, read-out: IC50 S. aureus Topoisomerase IV decatenation (average)) was > 7.00, the pIC50 [20, 36] was > 7.00 and the pIC50 [20, 37] was > 7.00. The MIC [21] was ≤ 0.016 µg/mL, the MIC [22] was ≤ 0.016 µg/mL and the “MIC fold lower than that of ciprofloxacin” value [23] was “approximately 10 fold”. The MIC [23, 38] was 0.03 µg/mL and the MIC ([23]; ATCC29213, S. aureus ATCC29213, ref strain, S4 File) was ≤ 0.06 µg/mL.

Work on Cl.O=c1oc2ccc(F)cc2c2[nH]c(CN[C@H]3CC[C@H](n4c(=O)ccc5ccc(F)cc54)CC3)cc12 [Compound 6, 8-fluoro-2-({[trans-4-(7-fluoro-2-oxoquinolin-1(2H)-yl)cyclohexyl]amino}methyl)[1]benzopyrano[4,3-b]pyrrol-4(1H)-one hydrochloride] yielded a pIC50 [1, 24] of 6.51, a pIC50 [1, 25] of 6.57 and a pIC50 [1, 26] of 6.46. For the same compound, the MIC [2] was 0.03 µg/mL, the MIC [3] was 0.03 µg/mL and the MIC [4] was 0.06 µg/mL. It also gave an MIC [5] of 0.03 µg/mL, an MIC [6] of 0.03 µg/mL and an MIC50 [7] of 0.25 µg/mL. It also gave an MIC90 [7] of 0.25 µg/mL, an MIC [7] of 0.06 to 1 µg/mL and an MIC50 [8] of 0.12 µg/mL. It also gave an MIC90 [8] of 0.12 µg/mL, an MIC [8] of 0.06 to 0.12 µg/mL and a pIC50 [9, 27] of 6.89. The pIC50 [9, 28] was 6.89, the pIC50 [9, 29] was 6.92 and the pIC50 [10, 30] was 4.99 and 5.00. The pIC50 [10, 31] was 4.89, the pIC50 [10, 32] was 5.14 and the MIC range [11] was 0.008 to 0.06 µg/mL. It also gave an MIC50 [11] of 0.03 µg/mL, an MIC90 [11] of 0.06 µg/mL and an MIC [12] of 0.12 µg/mL. It also gave an MIC [13] of 4 µg/mL, an MIC [14] of 0.25 µg/mL and an MIC [15] of 0.5 µg/mL. For the same compound, the MIC [16] was 0.25 µg/mL, the MIC [17] was ≤ 0.06 µg/mL and the MIC [18] was 8 µg/mL. It also gave a pIC50 [19, 33] of 6.60, a pIC50 [19, 34] of 6.57 and a pIC50 [19, 35] of 6.66. It also gave a pIC50 [20] of 6.54, a pIC50 [20, 36] of 6.51 and a pIC50 [20, 37] of 6.59. For the same compound, the MIC [22] was ≤ 0.016 µg/mL, the “MIC fold lower than that of ciprofloxacin” value [23] was “approximately 10 fold” and the MIC [23, 38] was ≤ 0.06 µg/mL.
